The subject of assay [1] is Aβ40 secretion. Briefly: Aβ40 secretion by H4 cells expressing APP695, sandwich ELISA. Particulars: medium collected at 24 or 48 hours, several numbers = independent sets of assays; for IC50: about 1 μM to about 100 μM; for inhibition at 100 µM / % Inhibition of Aβ40 Secretion @ 100 μM: test compound 100 μM vs DMSO control. It is filed as cell-based, human. On the procedure: (§1) The present invention provides compositions and methods for lowering Aβ42 levels. To test whether compounds and compositions are capable of modulating Aβ levels in cultured cells, sandwich enzyme-linked immunosorbent assays (ELISAs) are employed to measure secreted Aβ (Aβ42 and/or Aβ40 levels). In this example, H4 cells expressing wide type APP695 are seeded at 200,000 cells per well in 6 well plates, and incubated at 37° C. with 5% CO2 overnight. Cells are treated with 1.5 ml medium containing vehicle (DMSO) or a test compound at 1.25 μM, 2.5 μM, 5.0 μM and 10.0 μM (as well as other concentration if desirable) for 24 hours or 48 hours. The supernatant from treated cells is collected into eppendorf tubes and frozen at −80° C. for future analysis.
(§2) The amyloid peptide standard is reconstituted and frozen samples are thawed. The samples and standards are diluted with appropriate diluents and the plate is washed 4 times with Working Wash Buffer and patted dry on a paper towel. 100 μL per well of peptide standards, controls, and dilutions of samples to be analyzed is added. The plate is incubated for 2 hours while shaking on an orbital plate shaker at RT. The plate is then washed 4 times with Working Wash Buffer and patted dry on a paper towel. Detection Antibody Solution is poured into a reservoir and 100 μL/well of Detection Antibody Solution is immediately added to the plate. The plate is incubated at RT for 2 hours while shaking and then washed four times with Working Wash Buffer and patted dry on a paper towel. Secondary Antibody Solution is then poured into a reservoir and 100 μL/well of Secondary Antibody Solution is immediately added to the plate. The plate is incubated at RT for 2 hours with shaking, washed 5 times with Working Wash Buffer, and patted dry on a paper towel.
(§3) 100 μL of stabilized chromogen is added to each well and the liquid in the wells begins to turn blue. The plate is incubated for 30 minutes at room temperature and in the dark. 100 μL of stop solution is added to each well and the plate is tapped gently to mix resulting in a change of solution color from blue to yellow. The absorbance of each well is read at 450 nm having blanked the plate reader against a chromogen blank composed of 100 μL each of stabilized chromogen and stop solution. The plate is read within 2 hours of adding the stop solution. The absorbance of the standards is plotted against the standard concentration and the concentrations of unknown samples and controls are calculated.
(§4) The present invention provides compositions and methods for lowering Aβ42 levels. To test whether compounds and compositions are capable of modulating Aβ levels, sandwich enzyme-linked immunosorbent assays (ELISAs) is employed to measure secreted Aβ42 and/or Aβ40 levels. In this example, H4 cells expressing wide type APP695 are seeded at 200,000 cells per well in 6 well plates, and incubated at 37° C. with 5% CO2 overnight. Cells are treated with 1.5 mL medium containing vehicle (DMSO) or a test compound at 1.25 μM, 2.5 μM, 5.0 μM and 10.0 μM concentration for 24 hours or 48 hours. The supernatant from treated cells is collected into eppendorf tubes and frozen at −80° C. for future analysis.
(§5) 130 μL per well of samples, standards, and blanks is added to a 96-well polypropylene plate. […] of samples, standards, and blanks from the polypropylene plate is added to the antibody-coated plates. The strip-holder with the appropriate number of strips is applied to the antibody-coated plates and the strips are covered with an adhesive sealer. The plate is then incubated 3 hours at room temperature while shaking on an orbital plate shaker.
(§6) The first antibody solution is prepared with Conjugate Diluent 1 at 1:100 ratio. Each well of the antibody-coated plates is washed 5 times with 400 μL washing solution and 100 μL of the prepared first antibody solution is added to each well. […]
A general note: An ELISA detects its analyte on a solid surface through an enzyme-linked reagent.

Assay [2] has as its system Aβ42 secretion. Briefly: Aβ42 secretion by H4 cells expressing APP695, sandwich ELISA. It is filed as cell-based, human. Particulars: medium collected at 24 or 48 hours, several numbers = independent sets of assays; for IC50: about 1 μM to about 100 μM; for inhibition at 100 µM / % Inhibition of Aβ42 Secretion @ 100 μM: test compound 100 μM vs DMSO control. On the procedure: as §1, §2, §3, §4, §5, §6

Values joined by “and” are separate entries in the source; they are usually repeats but may differ in a detail not shown here. Equal entries are not always repeated.

In general, IC50 refers to the concentration at which inhibition is half-maximal. Read a high IC50 as lower potency. One may read the inhibition as the change of the read-out against control, counted positive when it falls. As for `CC(C)(C)Cc1c(-c2ccccc2)cc(-c2ccccc2)n1-c1cccc(C(=O)O)c1` [Compound 36, 3-[2-(2,2-Dimethyl-propyl)-3,5-diphenyl-pyrrol-1-yl]-benzoic acid], in assay [1] (Homo sapiens), the IC50 was 29 µM and the inhibition at 100 µM is 103%. Further, in assay [1], the IC50 worked out at 19 µM and the “% Inhibition of Aβ40 Secretion @ 100 μM” value stood at 96%. Also, in assay [2] (Homo sapiens), the IC50 was found to be 8 µM and the inhibition at 100 µM is 99%. Also, in assay [2], the IC50 stood at 7 µM and the “% Inhibition of Aβ42 Secretion @ 100 μM” value is reported as 101%.
Regarding `O=C(O)c1cccc(-n2c(-c3ccccc3)cc(-c3ccccc3)c2C2CC2)c1` [Compound 33, 3-(2-Cyclopropyl-3,5-diphenyl-pyrrol-1-yl)-benzoic acid], the IC50 was 74 µM in assay [1] (Homo sapiens), 79 µM in assay [1], 21 µM in assay [2] (Homo sapiens) and 24 µM in assay [2]. Further, the inhibition at 100 µM was 73% in assay [1] (Homo sapiens) and 89% in assay [2] (Homo sapiens). Further, in assay [1], the “% Inhibition of Aβ40 Secretion @ 100 μM” value is 73, 73%. Besides, in assay [2], the “% Inhibition of Aβ42 Secretion @ 100 μM” value was 86%.
Turning to `Cc1c(-c2ccccc2)cc(-c2ccccc2)n1-c1ccc(Cl)c(C(=O)O)c1` [Compound 3, 2-Chloro-5-(2-methyl-3,5-diphenyl-pyrrol-1-yl)-benzoic acid], the IC50 in assay [1] (Homo sapiens) came to 98 µM; in assay [2] (Homo sapiens), 37 µM. Also, the inhibition at 100 µM in assay [1] (Homo sapiens) turned out to be 52%; in assay [2] (Homo sapiens), 89%.
Regarding `Cc1c(-c2ccccc2)cc(-c2ccccc2)n1-c1cccc(C(=O)O)c1` [Compound 2, 3-(2-Methyl-3,5-diphenyl-pyrrol-1-yl)-benzoic acid], the half-maximal inhibitory concentration (IC50) is above 100 µM in assay [1] (Homo sapiens) and 48 µM in assay [2] (Homo sapiens). Besides, the inhibition at 100 µM in assay [1] (Homo sapiens) was found to be 36%; in assay [2] (Homo sapiens) it was 76%.
With `Cc1c(-c2ccccc2)cc(-c2ccc(C(F)(F)F)cc2)n1-c1cccc(CCC(=O)O)c1` [Compound 15, 3-{3-[2-Methyl-3-phenyl-5-(4-trifluoromethyl-phenyl)-pyrrol-1-yl]-phenyl}-propionic acid], the IC50 in assay [1] (Homo sapiens) is 82 µM; in assay [2] (Homo sapiens), 21 µM. The inhibition at 100 µM in assay [1] (Homo sapiens) was found to be 63%; in assay [2] (Homo sapiens), 96%.
As for `CCOC(=O)c1cc(CCc2ccccc2)n(-c2ccc(CCCC(=O)O)cc2)c1-c1ccccc1` [Compound 22, 1-[4-(3-Carboxy-propyl)-phenyl]-5-phenethyl-2-phenyl-1H-pyrrole-3-carboxylic acid ethyl ester], in assay [1] (Homo sapiens), the IC50 is 40 µM and the inhibition at 100 µM came to 65%. Also, in assay [2] (Homo sapiens), half-maximal inhibition (IC50) required 55 µM and the inhibition at 100 µM was determined as 68%.
`O=C(O)CCCc1ccc(-n2c(-c3ccccc3)cc(-c3ccccc3)c2C2CCCCC2)cc1` [Compound 29, 4-[4-(2-Cyclohexyl-3,5-diphenyl-pyrrol-1-yl)-phenyl]-butyric acid]: in assay [1] (Homo sapiens), the IC50 came to 33 µM and the inhibition at 100 µM was 103%. Also, in assay [2] (Homo sapiens), the midpoint of inhibition, the IC50, lay at 14 µM and the inhibition at 100 µM was 102%.
As to `Cc1c(-c2cccc(C(F)(F)F)c2)cc(-c2ccccc2)n1-c1cccc(C(=O)O)c1` [Compound 8, 3-[2-Methyl-5-phenyl-3-(3-trifluoromethyl-phenyl)-pyrrol-1-yl]-benzoic acid], the “% Inhibition of Aβ40 Secretion @ 100 μM” value in assay [1] is 88% and 64%. Further, the inhibition at 100 µM in assay [2] (Homo sapiens) was found to be 94%. Besides, the “% Inhibition of Aβ42 Secretion @ 100 μM” value in assay [2] is on record as 80%.
`CC(C)(C)Cc1c(-c2ccccc2)cc(-c2ccccc2)n1-c1cccc(CCC(=O)O)c1` [Compound 37, 3-{3-[2-(2,2-Dimethyl-propyl)-3,5-diphenyl-pyrrol-1-yl]-phenyl}-propionic acid]: in assay [1] (Homo sapiens), the IC50 turned out to be 30 µM and the inhibition at 100 µM amounted to 98%. In assay [1], half-maximal inhibition (IC50) required 32 µM and the “% Inhibition of Aβ40 Secretion @ 100 μM” value worked out at 104%. Further, in assay [2] (Homo sapiens), the IC50 came out at 9 µM and the inhibition at 100 µM was determined as 100%. For the same molecule, in assay [2], half-maximal inhibition (IC50) was put at 7 µM and the “% Inhibition of Aβ42 Secretion @ 100 μM” value worked out at 99%.
As to `O=C(O)CCCc1ccc(-n2cc(-c3ccccc3)cc2-c2ccccc2)cc1` [Compound 7, 4-[4-(2,4-Diphenyl-pyrrol-1-yl)-phenyl]-butyric acid], in assay [1] (Homo sapiens), the IC50 was above 100 µM and the inhibition at 100 µM was 7%. In assay [2] (Homo sapiens), the IC50 was 52 µM and the inhibition at 100 µM turned out to be 76%.
Take `CC(C)(C)Cc1c(-c2ccccc2)cc(-c2ccccc2)n1-c1ccc(CCCC(=O)O)cc1` [Compound 38, 4-{4-[2-(2,2-Dimethyl-propyl)-3,5-diphenyl-pyrrol-1-yl]-phenyl}-butyric acid]: the IC50 in assay [1] (Homo sapiens) was 63 µM; in assay [1], 37 µM; in assay [2] (Homo sapiens), 10 µM; in assay [2] it was 7 µM. Moreover, the inhibition at 100 µM in assay [1] (Homo sapiens) is 88%; in assay [2] (Homo sapiens), 94%. Moreover, the “% Inhibition of Aβ40 Secretion @ 100 μM” value in assay [1] is reported as 104%. Further, in assay [2], the “% Inhibition of Aβ42 Secretion @ 100 μM” value was determined as 101%.
In the case of `Cc1c(-c2ccccc2)cc(-c2ccc(Cl)c(Cl)c2)n1-c1cccc(CCC(=O)O)c1` [Compound 18, 3-{3-[5-(3,4-Dichloro-phenyl)-2-methyl-3-phenyl-pyrrol-1-yl]-phenyl}-propionic acid], in assay [1] (Homo sapiens), the IC50 is above 100 µM and the inhibition at 100 µM worked out at 41%. Also, in assay [2] (Homo sapiens), the IC50 was 10 µM and the inhibition at 100 µM was 94%.
Consider `CCc1c(-c2ccccc2)cc(-c2ccccc2)n1-c1ccc(CCCC(=O)O)cc1` [Compound 13, 4-[4-(2-Ethyl-3,5-diphenyl-pyrrol-1-yl)-phenyl]-butyric acid], for which, in assay [1] (Homo sapiens), the IC50 was above 100 µM and the inhibition at 100 µM is 14%. Besides, in assay [2] (Homo sapiens), the IC50 is 12 µM and the inhibition at 100 µM worked out at 83%.
In the case of `Cc1c(-c2ccccc2)cc(-c2ccccc2)n1-c1ccc(OCCC(=O)O)cc1` [Compound 28, 3-[4-(2-Methyl-3,5-diphenyl-pyrrol-1-yl)-phenoxy]-propionic acid], the IC50 is above 32 µM in assay [1] (Homo sapiens) and 80 µM in assay [2] (Homo sapiens). Also, the inhibition at 100 µM in assay [1] (Homo sapiens) is 32%; in assay [2] (Homo sapiens), 55%.
In the case of `CCc1c(-c2ccccc2)cc(-c2ccccc2)n1-c1cccc(C(=O)O)c1` [Compound 11, 3-(2-Ethyl-3,5-diphenyl-pyrrol-1-yl)-benzoic acid], the IC50 in assay [1] (Homo sapiens) was above 100 µM; in assay [1], 69 µM and 68 µM. The inhibition at 100 µM in assay [2] (Homo sapiens) is 92%. In assay [2], the “% Inhibition of Aβ42 Secretion @ 100 μM” value is 94% and 78%.
For `CCOC(=O)c1cc(CCc2ccccc2)n(-c2cccc(C(=O)O)c2)c1-c1ccccc1` [Compound 20, 1-(3-Carboxy-phenyl)-5-phenethyl-2-phenyl-1H-pyrrole-3-carboxylic acid ethyl ester], in assay [1] (Homo sapiens), the IC50 was above 100 µM and the inhibition at 100 µM turned out to be 49%. In assay [2] (Homo sapiens), the midpoint of inhibition, the IC50, lay at 21 µM and the inhibition at 100 µM stood at 95%.
The matching figures for `O=C(O)CCc1cccc(-n2c(CCc3ccccc3)ccc2-c2ccccc2)c1` [Compound 24, 3-[3-(2-Phenethyl-5-phenyl-pyrrol-1-yl)-phenyl]-propionic acid]: 100 µM, 52%, 52 µM and 73%.
Take `Cc1c(-c2ccccc2)cc(-c2ccc(C(F)(F)F)cc2)n1-c1cccc(C(=O)O)c1` [Compound 14, 3-[2-Methyl-3-phenyl-5-(4-trifluoromethyl-phenyl)-pyrrol-1-yl]-benzoic acid]: the inhibition at 100 µM in assay [2] (Homo sapiens) turned out to be 96%. The “% Inhibition of Aβ42 Secretion @ 100 μM” value in assay [2] was 101% and 99% and 92%.
